Data taken from US20250367098A1, “SUNSCREEN COMPOSITION FOR LACTOBACILLUS AND S. EPIDERMIDIS PROTECTION ON SKIN” (DSM IP Assets B.V., priority 2022, published 2025).

What was measured:
[1] = system: Lactobacillus crispatus CIP 103604; experiment: In vitro UV model: bacterial survival after UV irradiation (96-well, MPN method); type: cell-based
Protocol: (§1) Accordingly, the inventors developed a targeted in vitro liquid model in 96-well microplate format to screen for UV protective actives (“UV filters”) on bacterial survival upon UV irradiation. The effects of selected UV irradiation conditions tested on microbial population of Lactobacillus crispatus (L. crispatus) and Staphylococcus epidermidis (S. epidermidis) in the presence of UV filter samples and combinations thereof were evaluated with the evolution of the residual microbial population after 4 h. The inhibition of bacterial growth, as consequence of UV irradiation, was compared to that of the same strain without UV irradiation and was expressed in percentage of survival (%). The microbial strains used in this study are listed below and their cultures are reconstituted according to the direction of the supplier collection center of the reference strain, CRBIP (Institut Pasteur Collection, France) or ATCC (American Type Culture Collection, USA): • Lactobacillus crispatus CIP 103604 • Staphylococcus epidermidis ATCC 12228 The 96-well plate was filled with the culture media (140 μL) and a calibrated inoculum (20 μL) of each bacterial strain was added to reach […] colony forming units per milliliter (cfu/mL) final concentration. After contamination, the sample was added (40 μL; 20% v/v) in triplicate and was thoroughly mixed to ensure a homogeneous distribution. Then, the plate was submitted to UV stress through an UV irradiator system (BioSun, Vilber Lourmat, France) according to the UV doses presented Table 1 below. The specific UV dose selected was between 10 and 49% survival of the microbial population. For the microbial population counts, aliquots of the contaminated samples of L. crispatus and S. epidermidis were serially diluted (4 decimal dilutions followed by 8 binary dilutions, in triplicate) in culture media on 96-wells plates with triphenyltetrazolium. Then, the plates were incubated at 37° C.±2,5° C. during 48 h taking into account the respiratory type of each strain. […] The use level of the single UV filter and combinations in the test formulations was calculated to obtain a predicted in vitro SPF value of 5.75+/−0.15 and 23.45+/−0.65, respectively (Table 2). […] The relative percentage of protection (%) was calculated from the difference between the survival percentages of samples and vehicle control (with UV irradiation) and divided to the survival percentage of the vehicle control. Consequently, the survival of each microbial population and the relative protection by the UV filter(s) were calculated and are summarized in the Table 2.

[2] = system: Staphylococcus epidermidis ATCC 12228; experiment: as above; type: cell-based
Protocol: as §1

In the case of `CCCCC(CC)COC(=O)c1ccc(Nc2nc(Nc3ccc(C(=O)OCC(CC)CCCC)cc3)nc(Nc3ccc(C(=O)OCC(CC)CCCC)cc3)n2)cc1` (stereo not shown) [Inv. 3, Ethylhexyl Triazone], the “L. crispatus relative protection by the UV filter(s) vs. vehicle control” value ([1]; 50 SED (500 mJ/cm^2 UVA+UVB), sample at 20% v/v, after 4 h) is reported as “(+100) %” and the “S. epidermidis relative protection by the UV filter(s) vs. vehicle control” value ([2]; 15 SED (150 mJ/cm^2 UVA+UVB), sample at 20% v/v, after 4 h) is reported as “(+59) %”.
For `CCCCC(CC)COC(=O)C(C#N)=C(c1ccccc1)c1ccccc1` (stereo not shown) [Inv. 1, Octocrylene], the “survival rate of L. crispatus after UV radiation (in words)” value ([1]; summary statement) was “particularly good survival rate” and the “protection of S. epidermidis from UV radiation (in words)” value ([2]; summary statement) was “efficiently protecting”.
